Results published in patent US7164021B2, “Opiate analogs selective for the δ-opioid receptor” (The Curators of The University of Missouri, priority 2002, dated 2007).

What was measured:
[1] = biological target: κ receptor (Homo sapiens, UniProt P41145); assay: Competitive analysis vs 3H-Bremazocine, κ receptor; format: binding; conditions: reference compound 3H-Bremazocine
[2] = biological target: delta receptor (Homo sapiens, UniProt P41143); assay: Competitive analysis vs 3H-Bremazocine, delta receptor; format: binding
[3] = biological target: mu receptor (Homo sapiens, UniProt P35372); assay: Competitive analysis vs 3H-Bremazocine, mu receptor; format: binding
[4] = biological target: κ receptor (Mus musculus, UniProt P33534); conditions: experimental value of the reference opioid; cited from earlier work
[5] = biological target: δ receptor (Mus musculus, UniProt P32300); conditions: experimental value of the reference opioid; cited from earlier work
[6] = biological target: μ receptor (Rattus norvegicus, UniProt P33535); conditions: experimental value of the reference opioid; cited from earlier work

Compound | % Inhibition κ [1] | Ki ([2]; competitive analysis, 1.64 nM 3H-Bremazocine, dose response curve FIG. 7A, read-out: Representative Ki δ (delta binding affinity)) | % Inhibition δ ([2]; competitive analysis, reference compound 3H-Bremazocine) | delta/mu selectivity ([2]; ratio delta vs mu binding) | % Inhibition μ [3] | Ki ([3]; competitive analysis, 1.64 nM 3H-Bremazocine, dose response curve FIG. 7B, read-out: Representative Ki μ) | experimental affinity κ receptor (value in parenthesis) [4] | experimental affinity δ receptor (value in parenthesis) [5] | experimental affinity μ receptor (value in parenthesis) [6]
Oc1cccc(-n2cnnc2-c2cccc(-c3ccccc3)c2)c1 [DST3-2] | 42% | 140 nM | 84% | 10/1 | 84% | 1000 nM | – | – | –
Oc1ccc2c3c1O[C@H]1c4[nH]c5ccccc5c4C[C@@]4(O)[C@@H](C2)N(CC2CC2)CC[C@]314 [NTI, naltrindole] | – | – | – | – | – | – | 7.18 | 10.70 | –
CN1CC[C@]23c4c5ccc(O)c4OC2C(=O)C2(Cc4ccccc4C2)C[C@@]3(O)C1C5 (some centres unmarked) [SIOM, spiroindanyloxymorphone] | – | – | – | – | – | – | < 6.00 | 8.77 | 7.48
